Data set [1] in a line: Stability of compounds in human plasma (LC-MS). Format: in vitro ADME.
Experimental: 5 μL of each of samples at concentrations of 20 ng/ml, 50 ng/ml, 100 ng/ml, 200 ng/ml, 500 ng/mL, 1000 ng/mL, 2000 ng/mL, 5000 ng/mL, and 10000 ng/mL was added to 45 μL of human plasma. The content of the compounds in the samples was determined by the LC-MS method and a standard curve was formed. 5 μL of a 1 mg/mL polypeptide solution was added to 45 μL of human plasma. […] With the content at 0 min as the standard (100%), the relative content of the retained compounds in the samples at other time points was calculated.
Data set [2] can be described thus: Blood glucose in normal mice after single subcutaneous administration and intraperitoneal glucose. Format: in vivo, C57BL/6 mice. As to conditions: for Blood glucose: glucose i.p. 18 h later, mean ± SD. Here is the method:
18 h later, a glucose solution at a concentration of 0.2 g/mL was intraperitoneally injected. Blood glucose values were measured by collecting blood from the tail of mice at time points of 0 min, 15 min, 30 min, 60 min, and 120 min according to the experimental design. The specific procedures were as follows: the mouse was physically immobilized with the tail exposed, a little part was cut off at the tail end, then the tail was squeezed to bleed, and blood glucose was determined using a Roche active glucometer after the 1st drop of blood was discarded. The area under the blood glucose curve (AUC) was calculated from the results of all time points.

The nature of data set [3]: Body weight of diet-induced-obesity mice after subcutaneous administration. Particulars: induced-obesity mice, 10 nmol/kg. Format: in vivo, C57BL/6 mice. How it is done: High-fat food-induced-obesity male C57BL/6 mice (weighing 35-55 g, aged 10-12 weeks, purchased from Shanghai Jiesijie Laboratory Animal Co., Ltd.) were tested. […] According to the experimental design, the body weight of each mouse was measured and recorded on day 0, day 3, day 6, and so on to day 27, the average body weight of each group of mice was calculated, and body weight change curves were plotted by taking the body weight on the first day as the standard. At the end, the fat and other visceral organs of each part of the mice were taken out and weighed, and the viscera/brain ratio for fat in each part of each mouse was calculated. The effect of the drug on the fat was determined by comparing the change in the viscera/brain ratio for fat of different parts of each group of mice.

In data set [4] the target is human glucose-dependent insulinotropic polypeptide receptor (GIPR) (human) (UniProt P48546). Description: cell-based or functional assay.
The target of data set [5] is T1, human glucagon-like peptide-1 receptor (GLP-1R) (human, UniProt P43220 24-463). In words: cell-based or functional assay.
Data set [6] addresses T2, human glucose-dependent insulinotropic polypeptide receptor (GIPR) (human, UniProt P48546 22-466).
T2 sequence (looked up): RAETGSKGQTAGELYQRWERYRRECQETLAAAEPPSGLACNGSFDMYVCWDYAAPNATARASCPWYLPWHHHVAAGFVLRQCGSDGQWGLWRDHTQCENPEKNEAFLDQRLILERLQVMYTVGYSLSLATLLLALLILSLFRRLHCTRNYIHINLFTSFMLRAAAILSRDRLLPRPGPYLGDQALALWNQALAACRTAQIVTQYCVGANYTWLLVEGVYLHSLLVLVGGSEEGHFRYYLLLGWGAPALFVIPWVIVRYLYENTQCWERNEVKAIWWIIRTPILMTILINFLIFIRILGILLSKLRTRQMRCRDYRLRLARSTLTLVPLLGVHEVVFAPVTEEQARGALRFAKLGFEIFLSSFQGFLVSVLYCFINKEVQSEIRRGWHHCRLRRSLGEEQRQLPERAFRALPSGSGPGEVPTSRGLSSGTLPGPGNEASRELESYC
In words: cell-based or functional assay.

Data set [7] has as its target T1, human glucagon-like peptide-1 receptor …. Description: cell-based or functional assay. This is another data set of the same source.
In data set [8] the target is T2, human glucose-dependent insulinotropic …. Description: cell-based or functional assay. The source holds these as a separate data set.

Where two headings read alike, the source gives them in different places. Starred links: 1 amine or outer side, 2 acyl side, 3 side chain; linkers in the order of their positions; H or OH if unused. Non-standard residues stand in square brackets, D forms with d. Residues, ends and D or L forms follow the SMILES beside them. Groups on a side chain read outwards from the residue. No end group written: not given here. *: point of attachment. C20 diacid = O=C(O)CCCCCCCCCCCCCCCCCCC(=O)*; Arachidoyl = CCCCCCCCCCCCCCCCCCCC(=O)*; γGlu = O=C(O)[C@H](CCC(=O)[*:2])N[*:1]; AEEA = NCCOCCOCC(=O)O; Aib = CC(C)(N)C(=O)O

On to `CC[C@H](C)[C@H](NC(=O)[C@H](CCCCN)NC(=O)[C@H](CC(=O)O)NC(=O)[C@H](CCCCNC(=O)COCCOCCNC(=O)COCCOCCNC(=O)CC[C@H](NC(=O)CCCCCCCCCCCCCCCCCCC(=O)O)C(=O)O)NC(=O)[C@H](Cc1ccc(O)cc1)NC(=O)[C@@H](NC(=O)[C@H](CO)NC(=O)[C@H](Cc1ccc(O)cc1)NC(=O)[C@H](CC(=O)O)NC(=O)[C@H](CO)NC(=O)[C@@H](NC(=O)[C@H](Cc1ccccc1)NC(=O)[C@@H](NC(=O)CNC(=O)[C@H](CCC(=O)O)NC(=O)C(C)(C)NC(=O)[C@@H](N)Cc1ccc(O)cc1)[C@@H](C)O)[C@@H](C)O)[C@@H](C)CC)C(=O)N[C@@H](C)C(=O)N[C@@H](C)C(=O)N[C@@H](CCC(N)=O)C(=O)N[C@@H](CCC(=O)O)C(=O)N[C@@H](Cc1ccccc1)C(=O)N[C@H](C(=O)N[C@@H](CC(N)=O)C(=O)N[C@@H](Cc1c[nH]c2ccccc12)C(=O)N[C@@H](CC(C)C)C(=O)N[C@@H](CC(C)C)C(=O)N[C@@H](C)C(=O)NCC(=O)NCC(=O)N1CCC[C@H]1C(=O)N[C@@H](CO)C(=O)N[C@@H](CO)C(=O)NCC(=O)N[C@@H](C)C(=O)N1CCC[C@H]1C(=O)N1CCC[C@H]1C(=O)N1CCC[C@H]1C(=O)N[C@@H](CO)C(N)=O)C(C)C` [Compound 7#] (H-Y[Aib]EGTFTSDYSIYK([AEEA-AEEA-γGlu-C20 diacid])DKIAAQEFVNWLLAGGPSSGAPPPS-NH2), for which the figures for the “Relative content of compounds retained in plasma” value in data set [1] (0 min) and in data set [1] (240 min) were 100.00% and 102.15%, respectively. Further, in data set [2] (10 nmol/kg), the “area under the blood glucose curve reduced compared with placebo” value was “more than 60%”. The “AUC (area under the blood glucose curve)” value in data set [2] (10 nmol/kg s.c., 0-120 min) was 10.7 ± 1.8 mmol·h/L. The Blood glucose in data set [2] (10 nmol/kg s.c., 0 min) is 4.4 ± 0.8 mmol/L; in data set [2] (10 nmol/kg s.c., 15 min), 6.7 ± 0.8 mmol/L; in data set [2] (10 nmol/kg s.c., 30 min) it was 6.2 ± 1.3 mmol/L; in data set [2] (10 nmol/kg s.c., 60 min) it was 5.7 ± 1.2 mmol/L; in data set [2] (10 nmol/kg s.c., 120 min), 3.8 ± 1.1 mmol/L. In addition, the Body weight change in data set [3] (Day 1, mean ± SD) is 0%; in data set [3] (Day 4, mean ± SD) it was −11.0 ± 1.0%; in data set [3] (Day 7, mean ± SD), −17.6 ± 2.6%; in data set [3] (Day 10, mean ± SD), −22.6 ± 5.9%; in data set [3] (Day 13, mean ± SD), −22.3 ± 6.3%; in data set [3] (Day 16, mean ± SD) it was −22.7 ± 6.9%. Further, the Body weight change in data set [3] (Day 19, mean ± SD) was −25.9 ± 6.2%; in data set [3] (Day 22, mean ± SD), −23.9 ± 5.6%; in data set [3] (Day 25, mean ± SD) it was −23.9 ± 5.6%; in data set [3] (Day 28, mean ± SD), −25.5 ± 5.3%.

With “Natural GIP (from UniProt P09681 52-93) (ligand)”, in data set [4], the Activity against human GIPR (EC50 nM); cAMP HTRF, CHO-K1 cells overexpressing hGIP receptor came to 0.006 nM.

In data set [4], Semaglutide (peptide) displayed an Activity against human GIPR (EC50 nM); cAMP HTRF, CHO-K1 cells overexpressing hGIP receptor of over 10 nM.

B1: compound 16# (peptide)
peptide: Y[Aib]EGTFTSDYSIYK([AEEA-AEEA-γGlu-Arachidoyl])EKIAAQEFINWLLAGGPSSGAPPPS-NH2
modifications: N-terminus assumed
SMILES: CCCCCCCCCCCCCCCCCCCC(=O)N[C@@H](CCC(=O)NCCOCCOCC(=O)NCCOCCOCC(=O)NCCCC[C@H](NC(=O)[C@H](Cc1ccc(O)cc1)NC(=O)[C@@H](NC(=O)[C@H](CO)NC(=O)[C@H](Cc1ccc(O)cc1)NC(=O)[C@H](CC(=O)O)NC(=O)[C@H](CO)NC(=O)[C@@H](NC(=O)[C@H](Cc1ccccc1)NC(=O)[C@@H](NC(=O)CNC(=O)[C@H](CCC(=O)O)NC(=O)C(C)(C)NC(=O)[C@@H](N)Cc1ccc(O)cc1)[C@@H](C)O)[C@@H](C)O)[C@@H](C)CC)C(=O)N[C@@H](CCC(=O)O)C(=O)N[C@@H](CCCCN)C(=O)N[C@H](C(=O)N[C@@H](C)C(=O)N[C@@H](C)C(=O)N[C@@H](CCC(N)=O)C(=O)N[C@@H](CCC(=O)O)C(=O)N[C@@H](Cc1ccccc1)C(=O)N[C@H](C(=O)N[C@@H](CC(N)=O)C(=O)N[C@@H](Cc1c[nH]c2ccccc12)C(=O)N[C@@H](CC(C)C)C(=O)N[C@@H](CC(C)C)C(=O)N[C@@H](C)C(=O)NCC(=O)NCC(=O)N1CCC[C@H]1C(=O)N[C@@H](CO)C(=O)N[C@@H](CO)C(=O)NCC(=O)N[C@@H](C)C(=O)N1CCC[C@H]1C(=O)N1CCC[C@H]1C(=O)N1CCC[C@H]1C(=O)N[C@@H](CO)C(N)=O)[C@@H](C)CC)[C@@H](C)CC)C(=O)O
Consider B1, for which the “Activity against human GLP-1R (EC50 nM); cAMP HTRF, CHO-K1/GLP-1R/CRE-luc cells” value (“Activity against human GLP-1R (EC50 nM)” below) in data set [5] is 0.029 nM. In addition, the “Activity against human GIPR (EC50 nM); cAMP HTRF, CHO-K1 cells overexpressing hGIP receptor” value (shortened to “Activity against human GIPR (EC50 nM)”) in data set [6] worked out at 0.095 nM.

For the molecule Y[Aib]EGTFTSDYSIYK([AEEA-AEEA-γGlu-Arachidoyl])EKIAAQEFVNWLLAGGPSSGAPPPS-NH2 [compound 18#], in data set [5], the “Activity against human GLP-1R (EC50 nM)” value was determined as 0.013 nM. In data set [6], the “Activity against human GIPR (EC50 nM)” value turned out to be 0.06 nM.

B2: compound 17# (peptide)
peptide: Y[Aib]EGTFTSDYSIYK([AEEA-AEEA-γGlu-Arachidoyl])ERIAAQEFVNWLLAGGPSSGAPPPS-NH2
modifications: N-terminus assumed
SMILES: CCCCCCCCCCCCCCCCCCCC(=O)N[C@@H](CCC(=O)NCCOCCOCC(=O)NCCOCCOCC(=O)NCCCC[C@H](NC(=O)[C@H](Cc1ccc(O)cc1)NC(=O)[C@@H](NC(=O)[C@H](CO)NC(=O)[C@H](Cc1ccc(O)cc1)NC(=O)[C@H](CC(=O)O)NC(=O)[C@H](CO)NC(=O)[C@@H](NC(=O)[C@H](Cc1ccccc1)NC(=O)[C@@H](NC(=O)CNC(=O)[C@H](CCC(=O)O)NC(=O)C(C)(C)NC(=O)[C@@H](N)Cc1ccc(O)cc1)[C@@H](C)O)[C@@H](C)O)[C@@H](C)CC)C(=O)N[C@@H](CCC(=O)O)C(=O)N[C@@H](CCCNC(=N)N)C(=O)N[C@H](C(=O)N[C@@H](C)C(=O)N[C@@H](C)C(=O)N[C@@H](CCC(N)=O)C(=O)N[C@@H](CCC(=O)O)C(=O)N[C@@H](Cc1ccccc1)C(=O)N[C@H](C(=O)N[C@@H](CC(N)=O)C(=O)N[C@@H](Cc1c[nH]c2ccccc12)C(=O)N[C@@H](CC(C)C)C(=O)N[C@@H](CC(C)C)C(=O)N[C@@H](C)C(=O)NCC(=O)NCC(=O)N1CCC[C@H]1C(=O)N[C@@H](CO)C(=O)N[C@@H](CO)C(=O)NCC(=O)N[C@@H](C)C(=O)N1CCC[C@H]1C(=O)N1CCC[C@H]1C(=O)N1CCC[C@H]1C(=O)N[C@@H](CO)C(N)=O)C(C)C)[C@@H](C)CC)C(=O)O
In the case of B2, in data set [5], the “Activity against human GLP-1R (EC50 nM)” value was determined as 0.022 nM. Moreover, in data set [6], the “Activity against human GIPR (EC50 nM)” value is 0.11 nM.

On to Y[Aib]EGTFTSDYSIYK([AEEA-AEEA-γGlu-Arachidoyl])DKIAAQEFVNWLLAGGPSSGAPPPS-NH2 [compound 7#], for which the “Activity against human GLP-1R (EC50 nM)” value in data set [7] is 0.021 nM. For the same molecule, in data set [8], the “Activity against human GIPR (EC50 nM)” value amounted to 0.11 nM.

For the origin of these results see patent US20260014232A1, “Pharmaceutical Composition of GLP-1 and GIP Receptor Dual Agonist and Use Thereof” (Jiangsu Hengrui Pharmaceuticals Co., Ltd., priority 2021, published 2026).
